Target: P. falciparum apicoplast DNA polymerase (Pf-apPOL) (Plasmodium falciparum, UniProt Q8ILY1)
Assay: Fluorescence-based high-throughput DNA polymerase assay (molecular beacon), primary screen and dose-response
Type: biochemical
Experimental: The HT assay employs a molecular beacon, a stem-loop DNA template with a Cy3 dye and the Black Hole Quencher on the 3′ and 5′ ends of the DNA, respectively. Pf-apPOL concentration is based on a calculated absorptivity of ε280 = 56750 M^−1 cm^−1. Reactions were carried out at 25 °C, using Corning 3575 […] (well-volume, 20 µL). Assays testing for compound inhibition composed of reaction buffer (pH 7.9 in 50 mM potassium acetate, 20 mM Tris-acetate and 10 mM magnesium acetate), Pf-apPOL (20 nM), DNA substrate (20 nM), dNTPs (6 µM), and compound (10 µM in DMSO). The DNA and nucleotide substrates (dNTPs) were at concentrations of 20 nM and 6 µM, respectively, in the assay. Pf-apPOL was incubated in the reaction buffer with dNTPs and the compound of interest (10 µM, in the assay) at 25 °C for 10 min. The DNA substrate was then added and the reaction was allowed to proceed for 90 min at 25 °C.
Each assay plate contained 16 negative controls (no Pf-apPOL, DMSO present) and 16 positive controls (Pf-apPOL present, no DMSO). The fluorescence of each well was determined using a BioTek Synergy Neo fluorescence plate reader using excitation and emission wavelengths of 555 and 570 nm, respectively.
In the above, Min is the average of fluorescence emission of the negative controls (substrate only), Max the average fluorescence emission from the positive controls (enzyme + substrate), and Test the emission from the assays in the presence of compounds (enzyme + compound + substrates). […] […] The IC50 of each compound was determined using Equation (2): (2) IC50= Vmax/(1+ (I/IC50)^n)
In the above, n measures cooperativity, with n > 1 indicating synergistic binding of more than a single molecule of the compound.
To identify apPOL inhibitors we utilised our previously developed high-throughput DNA polymerase assay. The HT assay is based on a molecular beacon DNA template that forms a stem-loop with a Cy3 dye and the Black Hole Quencher on the 3′ and 5′ ends of the DNA, respectively. DNA polymerase activity extends an annealed primer through the stem region, displacing the fluorophore from the quencher, thereby increasing its fluorescence (Figure 1(A)). The assay accurately recapitulates the kinetic behaviour of apPOL, as measured through more conventional low-throughput gel-based assays. The Z′ factor for the assay described here was 0.9 across all plates (data not shown).
Figure 1. High-throughput screening. (A) The fluorescent-based DNA polymerase assay used to screen the compound libraries. The DNA template strand is a hairpin loop with a primer annealed to the loop. The 3’ end of the primer is 11 bases away from the 6 bp duplex. Strand displacement activity of the DNA polymerase separates the Cy3 dye from the Black hole quencher leading to an increase in fluorescent signal. (B) The high-throughput assay workflow. The DNA polymerase is incubated with […] compound for 10 min prior to addition of the hairpin substrate. The reaction is quenched at 3 different time points and the fluorescent signal is measured and % inhibition is determined using the provided equation.

[1] = DRC-1; concentration 80 (unit not given); 10'
[2] = primary screen value of the 186 hits; unit not given; 90 min, 10 µM
[3] = primary screen value; head prints only 'DNA Pol'; 90 min, 10 µM
[4] = supplemental file 2, sheet IC50 nontoxic compounds; Pf-apPOL

P. falciparum apicoplast DNA polymerase (Pf-apPOL), sequence (Q8ILY1 entry or part of it): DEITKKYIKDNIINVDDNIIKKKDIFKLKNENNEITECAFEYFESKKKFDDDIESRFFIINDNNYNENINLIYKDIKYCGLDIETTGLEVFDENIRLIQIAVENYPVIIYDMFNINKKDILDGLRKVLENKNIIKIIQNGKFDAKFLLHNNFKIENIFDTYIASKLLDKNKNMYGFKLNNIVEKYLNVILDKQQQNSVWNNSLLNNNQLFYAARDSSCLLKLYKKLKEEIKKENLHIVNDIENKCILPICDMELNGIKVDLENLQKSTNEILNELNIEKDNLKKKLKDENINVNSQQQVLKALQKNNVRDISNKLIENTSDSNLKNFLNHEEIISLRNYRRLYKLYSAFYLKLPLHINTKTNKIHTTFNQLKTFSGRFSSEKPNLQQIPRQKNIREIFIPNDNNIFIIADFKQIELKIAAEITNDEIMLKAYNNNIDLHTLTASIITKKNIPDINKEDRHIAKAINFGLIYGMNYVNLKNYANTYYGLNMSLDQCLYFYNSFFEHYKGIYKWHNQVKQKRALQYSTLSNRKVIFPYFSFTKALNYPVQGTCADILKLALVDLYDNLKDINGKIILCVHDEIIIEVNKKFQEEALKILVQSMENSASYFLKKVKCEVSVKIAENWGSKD

Compound: Cc1cc(C)nc(Nc2nc(CC(=O)Nc3nc(-c4ccco4)cs3)cs2)n1 [Molecule 92, O=C(Nc1scc(n1)c1ccco1)Cc1csc(n1)Nc1nc(C)cc(n1)C]
- % inhibition Apo pol 10' (DRC-1; concentration 2.5; 10'): -6.381%
- % inhibition Apol 90' (DRC-1; concentration 2.5; 90'): -8.504%
- % inhibition apPOL 180' (DRC-1; concentration 2.5; 180'): -14.5806%
- % inhibition Apo pol 10' (DRC-1; concentration 5; 10'): 13.7887%
- % inhibition Apol 90' (DRC-1; concentration 5; 90'): 3.55%
- % inhibition apPOL 180' (DRC-1; concentration 5; 180'): -5.24%
- % inhibition Apo pol 10' (DRC-1; concentration 10; 10'): 59.5511%
- % inhibition Apol 90' (DRC-1; concentration 10; 90'): 43.4607%
- % inhibition apPOL 180' (DRC-1; concentration 10; 180'): 29.1586%
- % inhibition Apo pol 10' (DRC-1; concentration 20; 10'): 80.2022%
- % inhibition Apol 90' (DRC-1; concentration 20; 90'): 69.8736%
- % inhibition apPOL 180' (DRC-1; concentration 20; 180'): 60.6937%
- % inhibition Apo pol 10' (DRC-1; concentration 40; 10'): 86.2847%
- % inhibition Apol 90' (DRC-1; concentration 40; 90'): 85.2413%
- % inhibition apPOL 180' (DRC-1; concentration 40; 180'): 83.5937%
- % inhibition Apo pol 10' [1]: 83.354%
- % inhibition Apol 90' (DRC-1; concentration 80; 90'): 86.9682%
- % inhibition apPOL 180' (DRC-1; concentration 80; 180'): 88.1815%
- % inhibition Apo pol 5' (DRC-2; 5'; concentration 5): 6%
- % inhibition Apo pol 5' (DRC-2; 5'; concentration 40): 41%
- % inhibition Apol 40' (DRC-2; 40'; concentration 10): 41%
- % inhibition Apol 40' (DRC-2; 40'; concentration 20): 59%
- % inhibition Apol 40' (DRC-2; 40'; concentration 80): 59%
- % inhibition ApPOL 90' (DRC-2; 90'; concentration 5): 6%
- % inhibition Apo pol 5' (DRC-2; concentration 2.5; 5'): 7%
- % inhibition Apol 40' (DRC-2; concentration 2.5; 40'): 9%
- % inhibition ApPOL 90' (DRC-2; concentration 2.5; 90'): 7.61%
- % inhibition apPOL 180' (DRC-2; concentration 2.5; 180'): 3.63%
- % inhibition Apo pol 5' (DRC-2; concentration 5; 5'): 6%
- % inhibition Apol 40' (DRC-2; concentration 5; 40'): 5.45%
- % inhibition ApPOL 90' (DRC-2; concentration 5; 90'): 6%
- % inhibition apPOL 180' (DRC-2; concentration 5; 180'): 0.203%
- % inhibition Apo pol 5' (DRC-2; concentration 10; 5'): 37%
- % inhibition Apol 40' (DRC-2; concentration 10; 40'): 41%
- % inhibition ApPOL 90' (DRC-2; concentration 10; 90'): 39%
- % inhibition apPOL 180' (DRC-2; concentration 10; 180'): 30%
- % inhibition Apo pol 5' (DRC-2; concentration 20; 5'): 43%
- % inhibition Apol 40' (DRC-2; concentration 20; 40'): 59%
- % inhibition ApPOL 90' (DRC-2; concentration 20; 90'): 60%
- % inhibition apPOL 180' (DRC-2; concentration 20; 180'): 57%
- % inhibition Apo pol 5' (DRC-2; concentration 40; 5'): 41%
- % inhibition Apol 40' (DRC-2; concentration 40; 40'): 65%
- % inhibition ApPOL 90' (DRC-2; concentration 40; 90'): 70%
- % inhibition apPOL 180' (DRC-2; concentration 40; 180'): 74%
- % inhibition Apo pol 5' (DRC-2; concentration 80; 5'): 29%
- % inhibition Apol 40' (DRC-2; concentration 80; 40'): 59%
- % inhibition ApPOL 90' (DRC-2; concentration 80; 90'): 66%
- % inhibition apPOL 180' (DRC-2; concentration 80; 180'): 73%
- DNA Pol [2]: 70
- DNA Pol [3]: 70

Compound: CCOc1ccccc1-c1nc(-c2ccc(=O)[nH]c2)no1 [Molecule 76]
- IC50 [4]: 38.7 µM

Compound: CCCCC(=O)N1CCc2c(nc3cc(-c4ccccc4Cl)[nH]n3c2=O)C1 [Molecule 37]
- IC50 [4]: 10.4 µM

Compound: COc1ccc(C=C2Oc3c(ccc4c3CN(Cc3ccco3)CO4)C2=O)c(OC)c1 [KU0199404]
- % inhibition Apo pol 10' (DRC-1; concentration 2.5; 10'): 1.778%
- % inhibition Apol 90' (DRC-1; concentration 2.5; 90'): 6.394%
- % inhibition apPOL 180' (DRC-1; concentration 2.5; 180'): 14.4773%
- % inhibition Apo pol 10' (DRC-1; concentration 5; 10'): 2.359%
- % inhibition Apol 90' (DRC-1; concentration 5; 90'): 10.7843%
- % inhibition apPOL 180' (DRC-1; concentration 5; 180'): 25.2477%
- % inhibition Apo pol 10' (DRC-1; concentration 10; 10'): 17.8134%
- % inhibition Apol 90' (DRC-1; concentration 10; 90'): 29.7292%
- % inhibition apPOL 180' (DRC-1; concentration 10; 180'): 48.7066%
- % inhibition Apo pol 10' (DRC-1; concentration 20; 10'): 37.7158%
- % inhibition Apol 90' (DRC-1; concentration 20; 90'): 50.8732%
- % inhibition apPOL 180' (DRC-1; concentration 20; 180'): 69.9557%
- % inhibition Apo pol 10' (DRC-1; concentration 40; 10'): 58.5562%
- % inhibition Apol 90' (DRC-1; concentration 40; 90'): 70.9348%
- % inhibition apPOL 180' (DRC-1; concentration 40; 180'): 86.2262%
- % inhibition Apo pol 10' [1]: 73.935%
- % inhibition Apol 90' (DRC-1; concentration 80; 90'): 78.9077%
- % inhibition apPOL 180' (DRC-1; concentration 80; 180'): 90.2103%
- % inhibition Apo pol 5' (DRC-2; 5'; concentration 10): 33%
- % inhibition Apo pol 5' (DRC-2; 5'; concentration 80): 49%
- % inhibition Apol 40' (DRC-2; 40'; concentration 10): 33%
- % inhibition Apol 40' (DRC-2; 40'; concentration 20): 49%
- % inhibition Apo pol 5' (DRC-2; concentration 2.5; 5'): 5%
- % inhibition Apol 40' (DRC-2; concentration 2.5; 40'): 1.45%
- % inhibition ApPOL 90' (DRC-2; concentration 2.5; 90'): -0.679%
- % inhibition apPOL 180' (DRC-2; concentration 2.5; 180'): -6%
- % inhibition Apo pol 5' (DRC-2; concentration 5; 5'): 12%
- % inhibition Apol 40' (DRC-2; concentration 5; 40'): 3.41%
- % inhibition ApPOL 90' (DRC-2; concentration 5; 90'): -6.4%
- % inhibition apPOL 180' (DRC-2; concentration 5; 180'): -80%
- % inhibition Apo pol 5' (DRC-2; concentration 10; 5'): 33%
- % inhibition Apol 40' (DRC-2; concentration 10; 40'): 33%
- % inhibition ApPOL 90' (DRC-2; concentration 10; 90'): 30%
- % inhibition apPOL 180' (DRC-2; concentration 10; 180'): 17%
- % inhibition Apo pol 5' (DRC-2; concentration 20; 5'): 46%
- % inhibition Apol 40' (DRC-2; concentration 20; 40'): 49%
- % inhibition ApPOL 90' (DRC-2; concentration 20; 90'): 45%
- % inhibition apPOL 180' (DRC-2; concentration 20; 180'): 31%
- % inhibition Apo pol 5' (DRC-2; concentration 40; 5'): 52%
- % inhibition Apol 40' (DRC-2; concentration 40; 40'): 58%
- % inhibition ApPOL 90' (DRC-2; concentration 40; 90'): 56%
- % inhibition apPOL 180' (DRC-2; concentration 40; 180'): 47%
- % inhibition Apo pol 5' (DRC-2; concentration 80; 5'): 49%
- % inhibition Apol 40' (DRC-2; concentration 80; 40'): 51%
- % inhibition ApPOL 90' (DRC-2; concentration 80; 90'): 48%
- % inhibition apPOL 180' (DRC-2; concentration 80; 180'): 43%
- DNA Pol [2]: 29
- DNA Pol [3]: 29

Compound: Cc1ccc(NC(=O)Cn2ccc3c(=O)[nH]ccc32)cc1F [Molecule 48]
- IC50 [4]: 15.3 µM

Compound: COc1ccc(C2CC(c3ccc(Cl)cc3Cl)Nc3nc(N)nn32)cc1OC (stereo not drawn) [Molecule 43]
- IC50 [4]: 11.7 µM
